“Also recorded” adds a separate entry of the source.
Columns and labels:
murine dendritic cells [1] = assay: TNF-alpha secretion by CpG-stimulated murine dendritic cells (ELISA); format: cell-based; details: stimulated overnight with graded doses of CpG, FIG. 1A
Experimental: (§1) Murine dendritic cells (FIG. 1A) or the murine macrophage-like cell line RAW264.7 cells (FIG. 1B) were cultured in the presence of sirtuin inhibitors as indicated or an equivalent amount of solvent (DMSO) and stimulated overnight with graded doses of CpG (FIG. 1A) or for 2 h with 100 ng/ml of lipopolysaccharide (LPS) from gram-negative bacteria. Cell supernatants were tested for tumor necrosis factor (TNF-alpha) content by ELISA.

[2] = tested on: murine macrophage-like cell line RAW264.7; assay: TNF-alpha secretion by LPS-stimulated RAW264.7 cells (ELISA); format: cell-based; details: stimulated 2 h with 100 ng/ml LPS, FIG. 1B
Experimental: as §1

murine dendritic cells [3] = assay: RANTES secretion by CpG-stimulated murine dendritic cells (ELISA); format: cell-based; details: inferred from RANTES secretion, FIG. 2
Experimental: Murine dendritic cells were cultured in the presence of sirtuin inhibitors as indicated and stimulated overnight with graded doses of CpG. Cell supernatants were tested for RANTES content by ELISA.

RAW264.7 = assay: TNF-alpha mRNA accumulation in LPS-stimulated RAW264.7 (quantitative RT-PCR); format: cell-based, murine; details: RAW264.7, stimulated 2 h by LPS, FIG. 3
Experimental: RAW264.7 were incubated in the presence of sirtuin inhibitors or equivalent doses of solvent (DMSO) as indicated and stimulated for 2 h by LPS. Expression of mRNA encoding for TNF-α was monitored using quantititative RT-PCR using standard procedures and the following forward and reverse primers (fwd: […]; rev: gctacgacgtgggctacag). […] Collectively, these observations indicate that sirtuin inhibitors may affect TNF-alpha secretion by interfering with at a post-transcriptional step.

[4] = Yang et al. 2007; cited from earlier work
SIRT1 = SIRT1 (Homo sapiens, UniProt Q96EB6); details: Howitz et al. 2003; cited from earlier work
SIRT1, sequence (Q96EB6 whole entry): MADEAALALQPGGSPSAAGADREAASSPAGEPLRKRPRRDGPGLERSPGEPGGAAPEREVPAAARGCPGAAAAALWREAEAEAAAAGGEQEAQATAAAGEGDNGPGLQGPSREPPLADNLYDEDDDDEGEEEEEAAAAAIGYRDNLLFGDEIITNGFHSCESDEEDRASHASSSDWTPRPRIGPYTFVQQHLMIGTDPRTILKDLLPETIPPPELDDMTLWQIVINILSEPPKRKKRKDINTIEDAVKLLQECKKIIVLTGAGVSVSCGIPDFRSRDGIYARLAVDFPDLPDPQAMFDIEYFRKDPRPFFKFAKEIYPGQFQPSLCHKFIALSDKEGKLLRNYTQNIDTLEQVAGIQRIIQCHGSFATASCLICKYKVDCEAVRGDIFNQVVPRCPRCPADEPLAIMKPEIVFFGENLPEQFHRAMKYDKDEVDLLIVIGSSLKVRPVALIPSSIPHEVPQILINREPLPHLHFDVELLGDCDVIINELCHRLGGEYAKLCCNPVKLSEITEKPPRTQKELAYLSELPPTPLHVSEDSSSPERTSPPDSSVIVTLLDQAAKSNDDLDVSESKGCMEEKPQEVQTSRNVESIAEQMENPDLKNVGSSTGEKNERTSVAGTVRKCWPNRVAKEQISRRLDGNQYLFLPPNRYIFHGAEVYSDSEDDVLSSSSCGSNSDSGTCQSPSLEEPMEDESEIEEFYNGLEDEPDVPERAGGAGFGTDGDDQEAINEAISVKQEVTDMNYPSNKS

Row | SMILES | TNF-alpha secretion (supernatant TNF-alpha content by ELISA) (murine dendritic cells [1]) | TNF-alpha secretion / cytokine production (supernatant TNF-alpha content by ELISA) [2] | general inhibition of protein synthesis or induction of cell death (murine dendritic cells [3]) | intracellular accumulation of TNF-alpha mRNA (RAW264.7) | release of inflammatory cytokines induced by cigarette smoke extracts [4] | inhibition of SIRT1 enzymatic activity (SIRT1)
1 | Oc1ccc2ccccc2c1Cc1c(O)nc(S)nc1-c1ccccc1 [cambinol, 5-((2-hydroxy-1-naphthyl)methyl)-2-mercapto-6-phenyl-4-pyrimidinol] | downregulation of TNF-alpha secretion | inhibit TNF-α protein synthesis; also recorded: downregulation of TNF-alpha secretion; also recorded: may downregulate TNF-alpha cytokine production | do not generally inhibit protein synthesis nor induce cell death | do not significantly affect TNF-alpha mRNA accumulation; also recorded: without significantly affecting the intracellular accumulation of TNF-alpha mRNA |  | 
2 | CC(NC(=O)c1ccccc1/N=C/c1c(O)ccc2ccccc12)c1ccccc1 (stereo not shown) [sirtinol, 2-[(2-Hydroxynaphthalen-1-ylmethylene)amino]-N-(1-phenethyl)benzamide] | downregulation of TNF-alpha secretion | inhibit TNF-α protein synthesis; also recorded: downregulation of TNF-alpha secretion; also recorded: may downregulate TNF-alpha cytokine production | do not generally inhibit protein synthesis nor induce cell death | do not significantly affect TNF-alpha mRNA accumulation; also recorded: without significantly affecting the intracellular accumulation of TNF-alpha mRNA | could increase the release of inflammatory cytokines | 
3 | Cc1ccc(C(=O)Nc2ccc(S(=O)(=O)O)c3cc(S(=O)(=O)O)cc(S(=O)(=O)O)c23)cc1NC(=O)c1cccc(NC(=O)Nc2cccc(C(=O)Nc3cc(C(=O)Nc4ccc(S(=O)(=O)O)c5cc(S(=O)(=O)O)cc(S(=O)(=O)O)c45)ccc3C)c2)c1 [suramin] |  |  |  |  |  | found to inhibit SIRT1 enzymatic activity

Source: patent US20100137345A1, “PROPHYLACTIC AND THERAPEUTIC USE OF SIRTUIN INHIBITORS IN TNF-ALPHA MEDIATED PATHOLOGIES” (Universite Libre de Bruxelles, priority 2007, published 2010)
